Data as given in patent US7144862B2, “Orally administered peptides to ameliorate atherosclerosis” (The Regents of the University of California, priority 2000, dated 2006).
Several values for one entry are separate records, joined by “and”; a condition that tells them apart may be missing. Equal entries are not always repeated.

How the values were obtained:
[1] = Plasma total and HDL cholesterol after oral D-4F; type: in vivo, mouse; settings: for Mean HDL-cholesterol / plasma total cholesterol concentration: apo E null mice
Experimental: Protein (Navab et al. (2000) J Lipid Res. 41: 1481–1494) and cholesterol (Van Lenten et al. (2001) Circulation, 103: 2283–2288) content of lipoproteins and statistical analyses were performed as described by Van Lenten et al. (2001) Circulation, 103: 2283–2288, with significance defined as P<0.05.

[2] = test system: LDL receptor null mice on a Western diet; experiment: Aortic root lesions, oral gavage twice daily for 6 weeks; type: in vivo, mouse; settings: oral gavage twice daily for 6 weeks (2.5 mg in liposomes)
Experimental: Groups of LDL receptor null mice were placed on a Western diet and were given by oral gavage, 100 μl of saline alone (Saline), n=4 animals, or 100 μl of liposomes without D-4F (Liposomes), n=5 animals, or 2.5 mg D-4F peptide in 100 μl liposomes (D-4F in liposomes), n=6 animals, twice daily for 6 weeks. The mice were bled, and subsequently sacrificed, aortic root fixed, sectioned and the extent of Oil Red O staining in fatty streak lesions quantified.
Female LDL receptor null or apo E null mice on a C57BL/6J background were purchased from the Jackson Laboratory, Bar Harbor, Me. The LDL receptor null mice were maintained on Purina chow diet (Ralston Purina Co.) until they were 4 weeks old when they were switched to a Western diet (Teklad, Madison, Wis., diet # 88137) for 6 weeks. The apo E null mice were maintained on Purina chow diet throughout the study LDL receptor null mice received the test peptide or a vehicle control by gastric gavage twice daily for the periods indicated in the figure legends. […]
Mice were bled under anesthesia from the retro-orbital venous plexus, in accordance with protocols approved by the UCLA Animal Research Committee. Atherosclerotic lesions were measured as previously described^9.

[3] = test system: human artery wall cell cocultures; experiment: Lipoproteins from mice given peptide by gavage tested in human artery wall cell cocultures (monocyte chemotactic activity); settings: 4F, 100 μg by oral gavage, LDL receptor deficient mice, blood after 6 hrs
Experimental: Groups of LDL receptor-deficient mice (n=3) were administered the D-peptides or the saline vehicle by gavage. […] Blood was collected from retroorbital sinus under mild anesthesia 17 hrs later. LDL was isolated from plasma by FPLC. Cocultures of artery wall cells were incubated with medium alone (NO ADDITION), control LDL from normal subjects (LDL), LDL plus control HDL from normal subjects (+HDL). […] The cocultures were incubated for 4 hrs at 37° C. in the presence of 10% LPDS. The supernatants were then discarded, the cocultures were washed and incubated with culture medium without serum or LPDS for an additional 4 hrs. This conditioned medium was collected and analyzed for monocyte chemotactic activity. The values are mean±SD of quadruplicate cocultures.
Blood was collect after 6 hrs, plasma HDL and LDL were isolated by gel filtration (FPLC) and examined in the cocultures. […] Human LDL at 200 μg protein/ml was added to human artery wall cell cocultures together with human HDL (hHDL) at 350 μg protein/ml or mouse HDL (mHDL) at 100 μg cholesterol/ml taken from mice that received saline (Saline Rx) or L-4F (L-4F Rx) or D-4F (D-4F Rx) and monocyte chemotactic activity was determined as described herein. […] On the right, mouse LDL (mLDL) was isolated from mice receiving saline (Saline Rx) or L-4F (L4F Rx) or D-4F (D-4F Rx) and was added at 100 μg cholesterol/ml to the artery wall cell cocultures without HDL and monocyte chemotactic activity determined. Values are mean±SD) for four wells in two independent experiments.
Either saline or 2F synthesized from D amino acids or from L amino acids was instilled in the stomachs of mice by gavage (instillation in the stomach by tube). After gavage the mice were bled and their LDL isolated and added to the human artery wall cell cocultures.
The animals were bled 1.5, 3 or 6 hours later and their HDL, LDL, and VLDL/IDL isolated.
Human aortic endothelial and smooth muscle cells were isolated and cultured as previously described (Id.). Cellular oxidation of LDL in the presence and absence of HDL was determined as described (Id.). Human blood monocytes were isolated after obtaining informed consent and monocyte chemotaxis was determined as described previously^5.

[4] = test system: mice infected with Influenza A virus; type: in vivo, mouse; settings: 20 micrograms daily injected after infection
[5] = Surface pressure measurements: monolayer exclusion pressure; type: physicochemical; settings: EPC monolayer; reproducibility ± 1 dyn/cm
Experimental: An insoluble monolayer of egg phosphatidylcholine (EPC) was spread at the air-water interface in a Teflon dish at room temperature to give an initial surface pressure (πi) in the range of 5–45 dyn/cm. A solution of peptides in PBS containing 1.5M Gdn. HCl was carefully injected in to the subphase to give a final concentration of 50 μg/dL. The Gdn. HCl was diluted in the subphase to a final concentration of ≦1 mM to allow the peptides to renature. The subphase was stirred continuously and the increase in EPC monolayer surface pressure (Δπ) was recorded until a steady state value was obtained. The value of the initial surface pressure (πi) at which the peptides no longer penetrate the EYPC monolayer i.e. the exclusion pressure (πe), was calculated by extrapolating the πi vs Δπ linear regression fit to Δπ=0 dyn/cm.

[6] = DSC, bilayer to hexagonal phase transition of DiPoPE; type: physicochemical; settings: heating scan rate 37°/h
Experimental: (§1) A known amount of phospholipid was dissolved in chloroform. For one set of samples, peptide was dissolved in methanol and added to a solution of DiPoPE in chloroforn/methanol (2:1, v:v). For both, pure lipid samples and the organic solutions of lipid and peptide, solvent was removed under a slow stream of nitrogen. Residual solvent was removed under vacuum. […] For DMPC, four consecutive scans with a 60 minute equilibration time between scans were taken. DSC thermograms were analyzed using the software provided by MicroCal Inc., Amherst, Mass., and Origin, version 5.0.
In the current study we prepared the peptide-lipid mixtures in two ways. One was by adding the peptide in organic solvent to the lipid in organic solvent followed by depositing the material as a film and subsequently hydrating with buffer. In the other method, the peptide and lipid were mixed after each was hydrated separately. If the mixture comes to equilibrium prior to the DSC analysis, it should not matter how the peptide and lipid are originally mixed. However, membrane systems can equilibrate slowly, in which case there may be more peptide in the lipid when it was incorporated at high concentrations into the lipid film.

[7] = Right angle light scattering, dissolution of EPC MLVs; type: physicochemical; settings: 105 μM EPC, equimolar peptide, 25° C., 30 min
Experimental: EPC MLVs were prepared by evaporating a solution of EPC (Avanti Polar, AL) under nitrogen and hydrating the lipid film with phosphate-buffered saline (pH 7.4). […] Turbidity clarification was monitored for 30 min.

[8] = DSC, chain melting transition of DMPC; type: physicochemical; settings: DMPC/peptide 100:1 (mol/mol)
Experimental: as §1
The effect of these 18A analogues on the chain melting transition of multilamellar vesicles of DMPC was studied by DSC using peptide-lipid mixtures at 100:1 lipid/peptide molar ratio.

[9] = test system: human artery wall cell cocultures; experiment: LDL-induced monocyte chemotactic activity with the homologous series of peptides (Example 3); type: cell-based; settings: peptide at 100 μg/ml, LDL 250 μg protein/ml, 8 h
Experimental: Microtitre plates were treated with 0.1% gelatin at 37° C. overnight. HASMC were added at a confluent density of 1×10^5 cells/cm^2. […] HAEC were subsequently added at 2×10^5 cells/cm^2 and were allowed to grow, forming a complete monolayer of confluent HAEC in two days. In all experiments, HAEC and autologous HASMC (from the same donor) were used at passage levels of four to six. […] The cocultures were treated with native LDL(250 μg protein/ml) or presence of HDL (350 μg protein/ml) or peptides for 8 h.

[10] = Circular dichroism, percent helicity; type: physicochemical
Experimental: Briefly, spectra were obtained using a cell with a 0.1 cm path length and measurements were taken every nm from 260 nm to 190 nm at 25° C. All the CD spectra were signal averaged by adding four scans, base line corrected and smoothed. Peptide solutions in PBS, pH 7.4, were used at a concentration of 11 μM. Peptide-DMPC complexes (1:20 mol:mol) were used to determine the effect of lipid binding on the helicity of these peptides. These complexes were prepared by adding the appropriate volume of peptide solution to DMPC multilamellar vesicles. DMPC multilamellar vesicles were prepared as follows: A known amount of lipid was dissolved in ethanol and the solvent was removed by evaporating slowly under a thin stream of nitrogen. Residual solvent was removed by storing the lipid film under vacuum overnight. An appropriate volume of PBS, pH 7.4 was added to the thin lipid film to give the required final concentration of DMPC.

Solubility in PBS = type: physicochemical; settings: in PBS
Experimental: The peptides were purified on a preparative Vydac C4 column by reversed-phase (RP)-HPLC using water (with 0.1% trifluoroacetic acid) and acetonitrile (0.1% trifluoroacetic acid). The purity and the retention times of the peptides were determined on an analytical Vydac C18 column using a gradient of 25%-58% acetonitrile in water containing 0.1% TFA. The purity of these peptides was also confirmed by mass spectrometry. The mass was in agreement with the calculated molecular weight. Although both the 3F peptides and 4F have additional Phe residues compared to 2F, the retention times of these peptides on the C18 column are not very different (˜22 min). A sudden increase in the retention time is apparent with 5F, 6F and 7F (˜26 min). With increasing number of Phe residues, the solubility of these peptides in PBS decreases.

[11] = Non-denaturing PAGE, self-association; type: physicochemical; settings: 100 and 250 μg/ml
Experimental: Non-denaturing and SDS-PAGE and was carried out using the method of Laemmli (1970) Nature 227: 680–685. Premade Novex gels were used and the gel was stained with Coomassie blue to identify the protein bands.

C57 BL6 mice = experiment: Diet-induced lesion formation with 2F; type: in vivo, mouse
Source text: It follows that in this mouse model, inhibition of LDL-induced monocyte chemotaxis is more anti-atherogenic than LCAT activation. Since the peptides 2F and 4F are similar in activating LCAT, and 4F and 5F are similar in removing “seeding molecules” from LDL, the peptide 4F may serve as a reagent to distinguish between the importance of LCAT activation and the inhibition of LDL-induced monocyte chemotaxis in different atherosclerosis-sensitive mouse models. If the inhibition of LDL-induced chemotaxis is more important than the LCAT-activating ability, then 4F should be better peptide to use as an inhibitor of atherosclerosis since this peptide is more soluble than the peptides 5F, 6F and 7F.

[12] = LDL receptor null mice, Western diet, gavage twice daily 6 weeks
[13] = 2.5 mg/mouse/day in drinking water
[14] = 5.0 mg/mouse/day in drinking water

CC(=O)N[C@H](CC(=O)O)C(=O)N[C@H](Cc1c[nH]c2ccccc12)C(=O)N[C@H](Cc1ccccc1)C(=O)N[C@H](CCCCN)C(=O)N[C@H](C)C(=O)N[C@H](Cc1ccccc1)C(=O)N[C@H](Cc1ccc(O)cc1)C(=O)N[C@H](CC(=O)O)C(=O)N[C@H](CCCCN)C(=O)N[C@@H](C(=O)N[C@H](C)C(=O)N[C@H](CCC(=O)O)C(=O)N[C@H](CCCCN)C(=O)N[C@H](Cc1ccccc1)C(=O)N[C@H](CCCCN)C(=O)N[C@H](CCC(=O)O)C(=O)N[C@H](C)C(=O)N[C@H](Cc1ccccc1)C(N)=O)C(C)C [Peptide D-4F, Ac-D-W-F-K-A-F-Y-D-K-V-A-E-K-F-K-E-A-F-NH2]
Total cholesterol [1, 12]: 761 ± 69 mg/dL | mean HDL-cholesterol level [1, 12]: 73 ± 8.7 mg/dL | Mean HDL-cholesterol [1, 13]: 38.7 ± 5 mg/dL | plasma total cholesterol concentration [1, 13]: 534 ± 12.3 mg/dL | Mean HDL-cholesterol [1, 14]: 43.4 ± 6 mg/dL | plasma total cholesterol concentration [1, 14]: 579 ± 4.6 mg/dL | reduction in atherosclerotic lesions [2]: 79% and 81% | HDL protective capacity [3]: enhance HDL protective capacity | LDL-induced monocyte chemotactic activity (mouse LDL) [3]: decrease LDL-induced monocyte chemotactic activity | biologically active oxidized phospholipids in the aorta after influenza A infection [4]: not generated beyond background | plasma paraoxonase levels after influenza A infection [4]: did not fall

Ac-DWLKAFYDKVAEKLKEAF-NH2 [Peptide 2F, Ac-D-W-L-K-A-F-Y-D-K-V-A-E-K-L-K-E-A-F-NH2]
Monolayer Exclusion Pressure(πc) [5]: 38 dyn/cm | shift in TH of DiPoPE with mol fraction of peptide [6]: linear increase in TH | clarification of EPC MLVs [7]: clarified the EPC MLVs to a similar extents | TCM(° C.) ([8]; 1.5 mM DMPC, chain melting transition temperature): 23.2 °C | ΔHCM (kcals/mol) ([8]; enthalpy of the transition): 4.5 kcals/mol | ΔT1/2 (° C.) ([8]; width at half maximum of the transition): 0.5 °C | inhibition of LDL-induced monocyte chemotaxis [9]: some inhibitory activity | Percent Helicity PBS ([10]; 11 μM peptide in PBS): 55% | Percent Helicity DMPC ([10]; 11 μM peptide, Peptide: DMPC 1:20 (mol/mol)): 72% | Solubility (Solubility in PBS): >2000 µg/mL | solubility (Solubility in PBS; read-out: Solubility): 1250 to 1400 µg/mL | self-association on non-denaturing PAGE [11]: forms aggregates in a concentration dependent manner | mean lesion area (C57 BL6 mice; 2F-administered mice, n=15, PBS control 14.7±1.8): 13.2±1.7 μm^2×10^−3 | inhibition of diet-induced lesion formation (C57 BL6 mice; C57 BL6 mice): did not significantly inhibit diet-induced lesion formation
